Data from US20190350995A1, “THERAPEUTIC COMPOSITION DERIVED FROM ANTHOSTEMA SENEGALENSE” (LABORATOIRE MICHEL IDERNE, priority 2016, published 2019).
Values after ≈ are worked out from the molar mass of the structure shown. Read-outs that look alike come from different tables or passages of the source. Each block holds one compound with its values, some of them ahead of it.

What was measured:
[1] = tested on: HIV type 1; experiment: In vitro anti-viral replication test (method of E De Clercq, MTT) against HIV type 1 in infected MT-4 cells; type: cell-based, HIV-1; conditions: for HIV-1 SI: selectivity index, ratio CC50/EC50; for biological (inhibitory) activity against HIV-1, in words: in vitro, "significant" = CC50≥45 μg/mL and selectivity index ≥50
Description: (§1) The anti-viral replication efficiency of the molecules of the chemical composition of the invention was tested in vitro against the replication of the viruses HIV type 1 (strain MO and HIV type 2 (strain ROD) in the infected MT-4 cells.
(§2) More specifically, the antiretroviral activity of the molecules was tested by effectively carrying out the method of E De Clercq in a microplate.
(§3) This method consists of producing a cell culture of MT-4 in a microplate, containing as cell culture medium: the medium developed by the Roswell Park Memorial Institute (referred to as “RPMI 1640”), comprising of foetal calf serum, glutamine, sodium bicarbonate, and gentamicin as bacterial inhibitor.
(§4) The molecules of the chemical composition of the invention are added at different concentrations into the cell growth medium. Each concentration of molecules to be tested is prepared in triplicate. The MT4 cells placed in the presence of the molecules to be tested are referred to as “treated cells”.
(§5) In each cell growth well, a defined amount of HIV-1 or HIV-2 is added in order to obtain the same concentration of virus in each well.
(§6) The cells placed in the presence of the HIV are referred to as “infected cells”.
(§7) Five days after the start of the process of infecting the MT4 cells with HIV-1 or HIV-2 in the presence of the molecules to be tested at different concentrations, a count is taken of the number of living cells by means of an MTT (tetrazolium salt) colorimetric assay by measuring the optical density at 540 nm.
(§8) As negative controls, use is made of cells without HIV 1 or HIV 2, referred to as “non-infected cells”, as well as of cells without the molecules to be tested referred to as “untreated cells”.
(§9) Thus, succinctly stated, the method of E De Clercq provides the means to obtain a density measurement at 540 nm for: • the cells infected with HIV-1 or HIV-2, treated with the molecules of the composition of the invention; • the cells not infected with HIV, treated with the molecules of the composition of the invention; • the cells infected with HIV-1 or HIV-2, not treated with the molecules of the composition of the invention; • the cells not infected with HIV, not treated with the molecules of the composition of the invention.
(§10) In particular, the effectiveness of the molecules of the composition of the invention was tested: • by measurement and calculation of the (median) 50% inhibitory concentration (IC50); • by measurement and calculation of the 50% cytotoxic concentration (CC50); • by measurement and calculation of the 50% effective concentration dose (EC50); and • by measurement and calculation of the selectivity index (SI), of the fractions containing the said molecules in the presence of the two strains of HIV.
(§11) The IC50 is the concentration of the molecule that makes it possible to decrease by 50% the viral proliferation of the negative control in vitro for a given time period, that is to say of the HIV without substance, only in its growth culture medium.
(§12) The EC50 is calculated using the following formula:
[(ODT)HIV^+]−[(ODC)HIV^+]/[(ODT)HIV^−]−[(ODC)HIV^−]×100 […]

[2] = tested on: HIV type 2 (strain ROD); experiment: In vitro anti-viral replication test (method of E De Clercq, MTT) against HIV type 2 (strain ROD) in infected MT-4 cells; type: cell-based, HIV-2; conditions: for HIV-2 SI: selectivity index, ratio CC50/EC50; for biological (inhibitory) activity against HIV-2, in words: in vitro, "significant" = CC50≥45 μg/mL and selectivity index ≥50
Description: as §1, §2, §3
The molecules of the chemical composition of the invention are added at different concentrations into the cell growth medium. […] The MT4 cells placed in the presence of the molecules to be tested are referred to as “treated cells”.
as §5, §6, §7, §8, §9, §10, §11, §12
[(ODT)HIV^+]−[(ODC)HIV^+]/[(ODT)HIV^−]−[(ODC)HIV^−]×100
Where: • (ODT)HIV^+ represents the optical density measurement at 540 nm, 5 days after infection, for the cells infected with HIV and treated with the composition of the invention, that is to say in the presence of molecules of the composition of the invention; • (ODC) HIV^+ represents the optical density measurement at 540 nm, 5 days after infection, for the cells infected with HIV in the absence of the molecules of the composition of the invention; • (ODT) HIV^− represents the optical density measurement at 540 nm, 5 days after infection, for the cells not infected with HIV and treated with the composition of the invention, that is to say in the presence of the molecules of the composition of the invention; i(ODC) HIV^− represents the optical density measurement at 540 nm, 5 days after infection, for the cells not infected with HIV in the absence of the molecules of the composition of the invention.
The selectivity index represents the ratio CC50/EC50. […]

[3] = tested on: MT-4 cells; experiment: 50% cytotoxic concentration in MT-4 cells (MTT); type: cell-based; conditions: for HIV-1 CC 50: HIV-1, average over duplicates; for HIV-2 CC 50: HIV-2, average over duplicates; for CC50: Homo sapiens
Description: as §3, §4, §7, §8, §9, §10
The CC50 is the concentration of active molecules that makes it possible to decrease by 50% the […]. In other words, it is the concentration of active molecules that makes it possible to decrease by 50% the viability of cells.

[4] = tested on: HIV-1 or HIV-2; experiment: In vitro anti-HIV test of fractions and isolated compounds, virus type not separated in the statement; type: cell-based
Description: The anti-HIV activity was tested in vitro according to the method of Clerq E on each of the abovementioned fractions AsC4.1, AsC4.2, AsC4.3, AsC4.4, AsC4.5, AsC4.6, AsC4.7 and AsC4.8.
More than ten different compounds were obtained for all of the different mobile phases used. Each compound was individually tested against HIV-1 and HIV-2 according to the in vitro method mentioned above.

[5] = infected MT-4 cells, 5 days after infection, MTT, average over duplicates
[6] = "significant" = CC50≥45 μg/mL and selectivity index ≥50

Compound: Nc1ccn([C@H]2CC[C@@H](CO)O2)c(=O)n1 [Dideoxycitidine, dideoxycitidine]
- HIV-1 IC 50 [1, 5]: 0.16 µg/mL
- HIV-1 SI [1]: >20
- HIV-2 IC 50 [2, 5]: 0.19 µg/mL
- HIV-2 SI [2]: >20
- HIV-1 CC 50 [3]: 0.12 µg/mL
- HIV-2 CC 50 [3]: 0.11 µg/mL

Compound: O=c1[nH]cnc2c1ncn2[C@H]1CC[C@@H](CO)O1 [Dideoxyinosine, dideoxyinosine]
- HIV-1 IC 50 [1, 5]: 2.09 µg/mL
- HIV-1 SI [1]: >50
- HIV-2 IC 50 [2, 5]: 3.78 µg/mL
- HIV-2 SI [2]: >50
- HIV-1 CC 50 [3]: 0.68 µg/mL
- HIV-2 CC 50 [3]: 1.22 µg/mL

- IC50 ([1]; Human immunodeficiency virus 1, MT4, 120 h, infected MT-4 cells, 5 days after infection, MTT, average over duplicates, read-out: HIV-1 IC 50): 0.05 µg/mL (≈ 0.188 µM)
- IC50 ([2]; Human immunodeficiency virus 2, MT4, 120 h, infected MT-4 cells, 5 days after infection, MTT, average over duplicates, read-out: HIV-2 IC 50): > 4 µg/mL
Compound: Cc1ccnc2c1NC(=O)c1cccnc1N2C1CC1 [Nevirapine, nevirapine]
- HIV-1 SI [1]: >4
- HIV-2 SI [2]: <1
- CC50 ([3]; MT4, HIV-1, average over duplicates, read-out: HIV-1 CC 50): 0.011 µg/mL (≈ 0.0413 µM)
- CC50 ([3]; MT4, HIV-2, average over duplicates, read-out: HIV-2 CC 50): > 4 µg/mL

Compound: CC(=O)OC1CCC2(C)C3CCC4C(=CC(=O)C5C(C)(C)CCCC45C)C3(C)CCC2C1(C)C (centres unmarked) [molecule A]
- biological (inhibitory) activity against HIV-1, in words [1]: at least two times greater
- biological (inhibitory) activity against HIV-2, in words [2]: at least two times greater
- biological activity against HIV (HIV-1 or HIV-2), in words [4, 6]: significant biological activity
- biological activity against HIV (HIV-1 or HIV-2), in words ([4]; "significant" = CC50≥45 μg/mL and selectivity index ≥50, listed as AsC4.5.1.1): “significant” biological activity

Compound: CC1(C)CC[C@]2(C(=O)O)CC=C3[C@]4(C)CCC5C(C)(C)[C@@H](OC(=O)c6ccccc6)[C@H](O)C[C@]5(C)C4CC[C@@]3(C)C2C1 (some centres unmarked) [molecule B]
- biological (inhibitory) activity against HIV-1, in words [1]: at least two times greater
- biological (inhibitory) activity against HIV-2, in words [2]: at least two times greater
- biological activity against HIV (HIV-1 or HIV-2), in words [4, 6]: significant biological activity
- biological activity against HIV (HIV-1 or HIV-2), in words ([4]; "significant" = CC50≥45 μg/mL and selectivity index ≥50, listed as AsC4.5.7.2): “significant” biological activity
